Read-outs that look alike come from different tables or passages of the source.
Columns and labels:
[1] = target: T1, AChE (EC 3.1.1.7) from electric eel (Electrophorus electricus, UniProt O42275); assay: biochemical; settings: for SI (selectivity index, AChE IC50/BuChE IC50): eeAChE IC50 / eqBuChE IC50; for IC50: eeAChE, mean ± SEM of triplicate independent experiments
T1 construct: AChE (EC 3.1.1.7, Type VI-S, from electric eel, C3389); purchased Sigma-Aldrich C3389; host or cells: electric eel (natural source)
Method: (§1) AChE (EC 3.1.1.7, Type VI-S, from electric eel, C3389) and BuChE (EC 3.1.1.8, from equine serum, C0663), 5,5’-dithiobis (2-nitrobenzoic acid) (DTNB, D218200), acetylthiocholine iodide (ATC, A5751) and butyrylthiocholine iodide (BTC, B3253) used as substrates were obtained from Sigma-Aldrich (St. Louis, MO).
(§2) The inhibitory capacity of the synthesised compounds on AChE and BuChE biological activity in this paper were evaluated according to our previously reported method. Briefly, AChE/BuChE stock solution was diluted with 0.2 M phosphate buffer pH 8.0 to give 2.5 units/mL (for electrophorus electricus (eeAChE) and equine serum (eqBuChE)). ATC/BTC iodide solution (0.075 M) was dissolved in deionized water. […] The assay solution was prepared as follows: potassium dihydrogen phosphate (1.36 g, 10 mmol) was dissolved in 100 ml of water. The pH of the solution was then adjusted to 8.0 ± 0.1 with KOH. Stock solutions of the test samples were dissolved in ethanol to give a final concentration of 10 − 4^ M when diluted to the final volume of 3.32 ml. For each compound, a dilution series of five different concentrations 10 − 5–10 − 9^9 M were prepared.
(§3) For measurement, a cuvette containing 3 mL of phosphate buffer, 100 μL of eeAChE or eqBuChE, 100 μL of DTNB, and 100 μL of the test compound solution was added in sequence. The reaction was initiated by adding 20 μL of ATC or BTC and the solution was mixed immediately. […] For the reference value, 100 μL of water was replaced for the test compound solution. For the blank control, additional 100 μL of water was also replaced for the enzyme solution. The measurement of each concentration was assayed in triplicate. GraphPad Prism 5 (GraphPad Software, Inc., La Jolla, CA) was used for data processing. The inhibition curve was fitted by plotting percentage enzyme activity (100% for the reference) versus the logarithm of test compound concentration. The half maximal inhibitory concentration (IC50) values were calculated according to the curve and the data were shown in mean ± SEM.
(§4) Inhibitory activities were presented as IC50 (nM).

[2] = target: T2, BuChE (EC 3.1.1.8) from horse serum (Equus caballus, UniProt P81908); assay: biochemical; settings: eqBuChE, mean ± SEM of triplicate independent experiments
T2 construct: BuChE (EC 3.1.1.8, from equine serum, C0663); purchased Sigma-Aldrich C0663; host or cells: equine serum (natural source)
Method: as §1, §2, §3, §4

Aβ1–42 = target: T3, Aβ1–42 (Homo sapiens, UniProt P05067); assay: Inhibition of self-induced Aβ1–42 aggregation (Thioflavin T assay); type: biochemical; settings: ThT fluorescence, 24 h incubation, read-out: Inhibitory rate of compounds (25 μM) on self-induced Aβ1-42 aggregation
T3 construct: aliquots of 2 μL of Aβ1–42 (AS-64129–05 Anaspec Inc.); purchased Anaspec Inc. AS-64129–05
Method: Inhibitory effects of the compounds on self-induced Aβ1–42 aggregation were tested through a Thioflavin T (ThT)-(T3516, Sigma-Aldrich) binding assay.
The calculation of the inhibitory rate of Aβ1–42 self-induced aggregation was performed as the following equation: (1 − IFi/IFc) × 100%. IFi and IFc were the fluorescence intensities measured in the presence and absence of inhibitors, respectively, after subtracting the background fluorescence of the 5 mM ThT solution. Each compound was measured in triplicate.
A thioflavin T-based fluorometric assay was performed.

[3] = system: scopolamine-induced cognition-impaired adult ICR mice; assay: Morris water maze in scopolamine-induced cognition-impaired mice; type: in vivo; settings: 30 mg/kg oral, scopolamine 1 mg/kg i.p., mean ± SEM n = 6; for Latency to target: probe trial
Method: Behavioral studies were performed using the Morris water maze[25] according to our method reported previously. Adult male imprinting control region (ICR) mice (8–10 weeks old, weight 20–25 g) were obtained from the Yangzhou University Medical Center (Yangzhou, China). All animal handling and experimental protocols were approved by the Institutional Animal Care and Use Committee of the China Pharmaceutical University. Scopolamine hydrobromide was purchased from Aladdin Reagents (S107418, Shanghai, China).
A circular pool (120 cm in diameter, 60 cm height) which was fixed with an escape platform (10 cm diameter) and filled to a depth of 40 cm fresh water (kept at 25 °C) composed the water maze and this water maze placed in a lit room was used to evaluate the cognition function and memory capacity of mice according to our previously described method[24] . After five days of learning and memory training, a probe trial was performed on day 6. For the evaluation of cognitive function, each mouse was individually trained on a visible-platform (labeled by a small flag, 5 cm tall) for two days and was followed by a hidden-platform version (placed 1 cm below the surface of the water) of the water maze from day 3 to day 5. All mice were subjected to two training trials daily, each of which lasted for 90 s. The time for each mouse to find the platform (a successful escape) was recorded. […] On the last day (day 6), a probe trial was given to the mice in which the platform was removed from the pool and each mouse was allowed 90 s to search for the platform. The time the animals spent to reach the missing platform location and the number of times they crossed that location were recorded.
Data for the time of escape latency, the swimming trajectory, and the number of visual platform crossings were recorded by Panlab SMART 3.0 (Panlab, S.L.U, Spain) and GraphPad Prism 5 was used to evaluate the level of memory retention.

adult male ICR mice = type: in vivo; settings: mouse, in vivo
Method: . Heparinised serum was obtained from the retrobulbar plexus 8, 22, and 36 h after the administration and were subjected to hepatotoxicity evaluation. The activity of aspartate aminotransferase (AST) and alanine aminotransferase (ALT), two indicators of liver damage, was determined by a commercial assay kit (EF551 and EF550 for ALT, EH027 and EF548 for AST, Wako, Japan). The data were analysed by Biochemical Analyzer (HITACHI 7020, Japan).
Mice were sacrificed 1 h after the collection of retrobulbar blood and livers were removed for morphological studies by using the immunohistochemical method. Two 3 mm sections of each liver extending from the hilus to the margin of the left lateral lobe were isolated using ultra-thin semiautomatic microtome (Leica RM2245, Germany) and placed in 10% buffered formaldehyde immediately, fixed for two days, and embedded together in one paraffin block by using paraffin embedding station (Leica EG1150H, Germany). Subsequently, 5 μm sections were prepared from these paraffin blocks. They were deparaffinated and stained with hematoxylin and eosin (H&E) for histopathological examinations.

HepG2 cells = settings: for Cell viability (% of vehicle): 24 h, MTT, mean ± SEM n = 3; for Antiproliferative activity on HepG2 cells (in words): MTT assay
Method: To determine the possible drug-induced hepatotoxicity, 10d and 10g were selected for preliminary hepatotoxicity evaluation. Heparinised serum was obtained after the treatment of the compounds at 8, 22, and 36 h, respectively. […] Additionally, immunohistochemical staining was performed on the liver tissues for the histopathological study.
Methods for Cell Viability Assay. The human hepatocellular HepG2 cells were […]
Cells were seeded into 96-well plates at a density of 3
37 °C for the following experiments. For cytotoxicity test, cells were treated with 0.05- […]
Cell viability was measured by 3-(4,5- dimethylthiazol-2-yl)-2,5-diphenyltetrazolium bromide (MTT) analysis. In brief, 15 µL of MTT was added into each well and incubated at 37 °C for 4 h. The […]
viability was calculated and presented by the percentage of vehicle-treated group.

T1 sequence (O42275 24-633): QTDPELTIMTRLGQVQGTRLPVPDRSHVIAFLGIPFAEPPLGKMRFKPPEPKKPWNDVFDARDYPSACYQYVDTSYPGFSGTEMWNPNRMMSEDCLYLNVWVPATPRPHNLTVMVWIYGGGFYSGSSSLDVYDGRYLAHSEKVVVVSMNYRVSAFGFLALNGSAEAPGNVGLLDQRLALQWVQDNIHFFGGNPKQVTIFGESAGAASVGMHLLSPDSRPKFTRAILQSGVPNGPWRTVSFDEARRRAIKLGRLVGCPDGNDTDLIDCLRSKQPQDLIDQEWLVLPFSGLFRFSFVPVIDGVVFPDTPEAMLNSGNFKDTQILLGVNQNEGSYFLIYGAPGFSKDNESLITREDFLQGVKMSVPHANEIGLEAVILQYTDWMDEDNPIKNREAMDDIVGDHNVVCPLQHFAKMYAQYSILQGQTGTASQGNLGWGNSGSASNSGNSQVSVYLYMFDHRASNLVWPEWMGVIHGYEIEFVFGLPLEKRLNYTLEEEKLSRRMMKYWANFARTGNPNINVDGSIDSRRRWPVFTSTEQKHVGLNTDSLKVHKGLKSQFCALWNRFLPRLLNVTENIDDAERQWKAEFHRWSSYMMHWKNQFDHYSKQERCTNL
T2 sequence (P81908 whole entry): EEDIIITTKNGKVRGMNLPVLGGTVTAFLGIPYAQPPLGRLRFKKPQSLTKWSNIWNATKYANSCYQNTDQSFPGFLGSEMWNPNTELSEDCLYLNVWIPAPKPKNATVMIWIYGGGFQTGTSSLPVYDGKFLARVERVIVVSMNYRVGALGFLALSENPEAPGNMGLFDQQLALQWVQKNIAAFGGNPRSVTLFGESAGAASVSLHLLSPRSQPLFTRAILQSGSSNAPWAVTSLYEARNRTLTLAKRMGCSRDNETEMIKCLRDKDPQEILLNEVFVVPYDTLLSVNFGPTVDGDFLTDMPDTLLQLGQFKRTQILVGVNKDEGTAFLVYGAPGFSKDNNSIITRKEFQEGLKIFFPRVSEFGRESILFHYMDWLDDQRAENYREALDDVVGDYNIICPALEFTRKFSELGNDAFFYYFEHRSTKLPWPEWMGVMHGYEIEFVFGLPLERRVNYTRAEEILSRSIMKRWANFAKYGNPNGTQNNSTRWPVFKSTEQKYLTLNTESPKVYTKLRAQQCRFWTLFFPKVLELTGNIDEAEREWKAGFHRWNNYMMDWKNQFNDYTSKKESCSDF
T3 sequence (P05067 672-713): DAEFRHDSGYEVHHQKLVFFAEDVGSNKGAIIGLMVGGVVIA

Row | Compound | SI (selectivity index, AChE IC50/BuChE IC50) [1] | IC50 [1] [nM] | IC50 [2] [nM] | inhibition at 25 µM (Aβ1–42) [%] | Distance to target [3] [cm] | Speed in virtual platform [3] [cm/s] | Latency to target [3] [s] | Morphologic changes in liver (histopathology, HE staining) (adult male ICR mice) | Cell viability (% of vehicle) (HepG2 cells; HepG2, 0.05 µM) | Cell viability (% of vehicle) (HepG2 cells; HepG2, 0.1 µM) | Cell viability (% of vehicle) (HepG2 cells; HepG2, 0.5 µM) | Cell viability (% of vehicle) (HepG2 cells; HepG2, 2.5 µM) | Cell viability (% of vehicle) (HepG2 cells; HepG2, 5 µM) | Cell viability (% of vehicle) (HepG2 cells; HepG2, 50 µM) | Antiproliferative activity on HepG2 cells (in words) (HepG2 cells)
1 | COc1cc(/C=C/C(=O)NCCNc2c3c(nc4ccccc24)CCCC3)ccc1OCc1ccc(Br)cc1 [Compound 10d, (E)-3–(4-((4-bromobenzyl)oxy)-3-methoxyphenyl)-N-(2-((1,2,3,4-tetrahydroacridin-9-yl)amino)ethyl)acrylamide] | 0.7 | 49.5 ± 3.8 | 69.4 ± 13.4 | 66.8 | 628.95 ± 87.55 | 18.82 ± 5.36 | 19.08 ± 2.56 | did not cause adverse morphologic changes in liver | 129.7 ± 7.5 % of vehicle | 125.0 ± 2.3 % of vehicle | 125.6 ± 2.1 % of vehicle | 130.6 ± 2.2 % of vehicle | 13.2 ± 2.3 % of vehicle | 2.5 ± 0.3 % of vehicle | relatively strong toxic effects
2 | COc1cc(/C=C/C(=O)NCCNc2c3c(nc4ccccc24)CCCC3)ccc1OCc1ccc(C)c(C)c1 [Compound 10g, (E)-3–(4-((3,4-dimethylbenzyl)oxy)-3-methoxyphenyl)-N-(2-((1,2,3,4-tetrahydroacridin-9-yl)amino)ethyl)acrylamide] | 0.4 | 37 | 101 ± 15.5 | 65.5 | 612.85 ± 81.54 | 17.27 ± 3.39 | 24.73 ± 3.54 | did not cause adverse morphologic changes in liver | 128.4 ± 5.6 % of vehicle | 124.6 ± 1.7 % of vehicle | 121.7 ± 3.5 % of vehicle | 128.9 ± 4.1 % of vehicle | 1.5 ± 0.1 % of vehicle | 1.9 ± 0.3 % of vehicle | relatively strong toxic effects
3 | COc1cc(/C=C/C(=O)NCCNc2c3c(nc4ccccc24)CCCC3)ccc1OCc1ccc(C#N)cc1 [Compound 10j, (E)-3–(4-((4-cyanobenzyl)oxy)-3-methoxyphenyl)-N-(2-((1,2,3,4-tetrahydroacridin-9-yl)amino)ethyl)acrylamide] | 1.3 | 107 ± 29.9 | 79.8 ± 8.9 | 49.5 |  |  |  |  |  |  |  |  |  |  | 
